Results as given in patent US12180192B2, “Modulators of THR-β and methods of use thereof” (ALIGOS THERAPEUTICS, INC., priority 2019, dated 2024).

Tests used:
[1] = target: T1, THR beta (Homo sapiens, UniProt P10828); assay: HEK293T THR beta/RXR luciferase reporter assay (Assay 2); assay type: cell-based; conditions: for Emax: HEK-293T, Table 5, Assay 2, THRβ, read-out: Activity category Assay 2 THRβ (Emax); for EC50: THR-beta, HEK293T reporter assay, read-out: Activity category Assay 2 (EC50, THR-beta agonist)
T1 construct: expressed in transfected cells; host or cells: HEK293T (ATCC CRL-3216)
T1 sequence (P10828 1-461): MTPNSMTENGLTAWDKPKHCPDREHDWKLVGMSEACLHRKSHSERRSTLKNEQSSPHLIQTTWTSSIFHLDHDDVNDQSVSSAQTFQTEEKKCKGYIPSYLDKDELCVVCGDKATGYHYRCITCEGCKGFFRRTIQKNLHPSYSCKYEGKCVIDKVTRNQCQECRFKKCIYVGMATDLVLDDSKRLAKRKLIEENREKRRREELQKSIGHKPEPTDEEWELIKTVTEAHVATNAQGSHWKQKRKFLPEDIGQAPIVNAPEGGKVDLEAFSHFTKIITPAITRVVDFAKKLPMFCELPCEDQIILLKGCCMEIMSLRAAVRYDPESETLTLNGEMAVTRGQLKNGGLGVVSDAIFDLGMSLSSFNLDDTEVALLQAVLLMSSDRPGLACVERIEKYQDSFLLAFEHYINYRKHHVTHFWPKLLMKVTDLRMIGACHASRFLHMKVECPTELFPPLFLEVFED
T1 sequence (P19793 1-462 partner): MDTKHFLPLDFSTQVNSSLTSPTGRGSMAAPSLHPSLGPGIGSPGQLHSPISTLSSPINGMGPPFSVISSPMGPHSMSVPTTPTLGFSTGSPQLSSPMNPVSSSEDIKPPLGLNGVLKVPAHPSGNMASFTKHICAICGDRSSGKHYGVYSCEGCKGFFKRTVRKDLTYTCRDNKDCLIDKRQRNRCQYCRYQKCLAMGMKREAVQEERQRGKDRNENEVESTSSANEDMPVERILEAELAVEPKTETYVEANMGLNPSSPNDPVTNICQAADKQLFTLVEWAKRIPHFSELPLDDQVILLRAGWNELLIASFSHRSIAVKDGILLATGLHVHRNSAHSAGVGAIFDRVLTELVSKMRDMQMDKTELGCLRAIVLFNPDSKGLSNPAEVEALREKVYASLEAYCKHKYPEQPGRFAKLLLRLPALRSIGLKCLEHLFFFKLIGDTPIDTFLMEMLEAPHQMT
Method in brief: (§1)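 Compounds tested as ten-point five-fold dilution series for 18-24 h on transiently transfected HEK293T cells carrying TRE-driven luciferase plus RXR and either THR alpha or beta expression plasmids. Read-out by One-Glo luminescence, expressed as percent agonism relative to negative and positive controls.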

[2] = target: T2, THR alpha (Homo sapiens, UniProt P10827); assay: HEK293T THR alpha/RXR luciferase reporter assay (Assay 2); assay type: cell-based; conditions: Assay 2; for Emax: HEK-293T, Table 5, THRα, read-out: Activity category Assay 2 THRα (Emax); for EC50: Table 4, THR-alpha, read-out: Activity category Assay 2 (EC50, THR-alpha agonist activity)
T2 construct: expressed in transfected cells; host or cells: HEK293T (ATCC CRL-3216)
T2 sequence (P10827 1-410 isoform P10827-2): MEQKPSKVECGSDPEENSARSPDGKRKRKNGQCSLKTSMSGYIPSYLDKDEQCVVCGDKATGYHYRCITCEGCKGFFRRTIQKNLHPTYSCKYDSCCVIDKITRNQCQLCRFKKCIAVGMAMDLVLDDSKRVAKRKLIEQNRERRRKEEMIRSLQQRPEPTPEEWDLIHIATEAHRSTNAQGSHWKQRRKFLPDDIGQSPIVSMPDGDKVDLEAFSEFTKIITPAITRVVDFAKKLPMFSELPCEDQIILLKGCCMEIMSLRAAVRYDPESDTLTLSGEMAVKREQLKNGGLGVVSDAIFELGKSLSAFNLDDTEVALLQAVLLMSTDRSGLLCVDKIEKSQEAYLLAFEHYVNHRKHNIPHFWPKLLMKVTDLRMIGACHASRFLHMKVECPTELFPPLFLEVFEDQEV
T2 sequence (P19793 1-462 partner): T1 sequence (P19793 1-462 partner)
Method in brief: as §1

[3] = target: T3, human thyroid receptor alpha ligand-binding domain (LBD) (Homo sapiens, UniProt P10827); assay: TR-FRET thyroid receptor alpha coactivator assay (THR biochemical assay, Assay 1); conditions: for EC50: Table 4, THR-alpha, read-out: Activity category Assay 1 (EC50, THR-alpha agonist activity); for Emax: Table 5, THRα, read-out: Activity category Assay 1 THRα (Emax)
T3 construct: purchased Invitrogen
Method in brief: (§2)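 Agonist-driven coactivator recruitment measured by TR-FRET: terbium anti-GST antibody (2 nM) bound to GST-LBD of TRβ or TRα (1 nM final, stated for β), with fluorescein SRC2-2 peptide at 200 nM. Compounds at 1% DMSO. Read after 1 h, room temperature, protected from light.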

[4] = target: T4, human thyroid receptor beta ligand-binding domain (LBD) (Homo sapiens, UniProt P10828); assay: TR-FRET thyroid receptor beta coactivator assay (THR biochemical assay, Assay 1); conditions: for EC50: THR-beta, TR-FRET coactivator assay, read-out: Activity category Assay 1 (EC50, THR-beta agonist); for Emax: Table 5, Assay 1, THRβ, read-out: Activity category Assay 1 THRβ (Emax)
T4 construct: purchased Invitrogen
T4 sequence (P10828 217-461 limits assumed): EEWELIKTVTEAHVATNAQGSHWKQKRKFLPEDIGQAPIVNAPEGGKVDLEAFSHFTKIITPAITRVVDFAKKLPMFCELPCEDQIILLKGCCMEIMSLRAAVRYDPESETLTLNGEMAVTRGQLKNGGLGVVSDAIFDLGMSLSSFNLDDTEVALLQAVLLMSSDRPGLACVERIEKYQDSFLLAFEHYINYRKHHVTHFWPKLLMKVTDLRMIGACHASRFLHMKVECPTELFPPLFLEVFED
Method in brief: as §2

Row | Compound | Emax [1] [%] | EC50 [1] [nM] | Emax [2] [%] | EC50 [2] [nM] | EC50 [3] [nM] | Emax [3] [%] | EC50 [4] [nM] | Emax [4] [%]
1 | CC(C)c1cc(Oc2c(Cl)cc(-n3nc(N)c(=O)[nH]c3=O)c3c2CC3)n[nH]c1=O [Compound 79, 6-Amino-2-[4-chloro-5-[(5-isopropyl-6-oxo-1H-pyridazin-3-yl)oxy]-bicyclo[4.2.0]octa-1(6),2,4-trien-2-yl]-4H-1,2,4-triazine-3,5-dione] | > 75 | > 10000 | 50 to 75 | 1000 to 10000 | 1000 to 25000 | < 50 | 1000 to 25000 | 50 to 75
2 | CCCCCc1n[nH]c2ccc(Cc3c(C)cc(-n4nc(C#N)c(=O)[nH]c4=O)cc3C)cc12 [Compound 32] | > 75 | 50 to 250 | > 75 | 50 to 250 | < 50 | 50 to 75 | < 50 | > 75
3 | Cc1cc(-n2nc(C#N)c(=O)[nH]c2=O)cc(C)c1Cc1ccc2[nH]nc(C(C)C)c2c1 [Compound 57, 2-(4-((3-Isopropyl-1H-indazol-5-yl)methyl)-3,5-dimethylphenyl)-3,5-dioxo-2,3,4,5-tetrahydro-1,2,4-triazine-6-carbonitrile] | > 75 | 50 to 250 | > 75 | 250 to 1000 | < 50 | < 50 | < 50 | < 50
4 | Nc1nn(-c2cc(Cl)c(Oc3ccc4c(c3)C3(CC3)C(=O)N4)c(Cl)c2)c(=O)[nH]c1=O [Compound 143] | > 75 | < 50 | > 75 | < 50 | < 50 | > 75 | < 50 | 50 to 75
5 | Nc1nn(-c2cc(Cl)c(Oc3cc(-c4ccc5ncccc5c4)c(=O)[nH]n3)c(Cl)c2)c(=O)[nH]c1=O [Compound 128] | < 50 | > 10000 | < 50 | > 10000 | > 25000 | < 50 | > 25000 | < 50
6 | O=c1cnn(-c2cc(Cl)c(Oc3cc(-c4ccc5c(c4)CCCC5)c(=O)[nH]n3)c(Cl)c2)c(=O)[nH]1 [Compound 91, 2-(3,5-dichloro-4-((6-oxo-5-(5,6,7,8-tetrahydronaphthalen-2-yl)-1,6-dihydropyridazin-3-yl)oxy)phenyl)-1,2,4-triazine-3,5(2H,4H)-dione] | 50 to 75 | 50 to 250 | < 50 | > 10000 | 1000 to 25000 | 50 to 75 | < 50 | < 50
7 | CC(C)c1cc(Oc2c(Cl)cc(-c3nn(C(F)F)c(=O)[nH]c3=O)cc2Cl)n[nH]c1=O [Compound 28, 6-[3,5-dichloro-4-[(5-isopropyl-6-oxo-1H-pyridazin-3-yl)oxy]phenyl]-2-(difluoromethyl)-4H-1,2,4-triazine-3,5-dione] | > 75 | 250 to 1000 | 50 to 75 | 1000 to 10000 | 250 to 1000 | 50 to 75 | 50 to 250 | < 50
8 | CC(C)c1cc(Cc2c(Cl)cc(-n3nc(N)c(=O)[nH]c3=O)cc2Cl)n[nH]c1=O [Compound 36, 6-Amino-2-[3,5-dichloro-4-[(5-isopropyl-6-oxo-1H-pyridazin-3-yl)methyl]-phenyl]-4H-1,2,4-triazine-3,5-dione] | 50 to 75 | < 50 | < 50 | < 50 | 50 to 250 | 50 to 75 | < 50 | 50 to 75
9 | O=c1cc(-c2ccc3ccccc3c2)c(Oc2c(Cl)cc(-n3ncc(=O)[nH]c3=O)cc2Cl)n[nH]1 [Compound 92-A] | < 50 | 250 to 1000 | < 50 | > 10000 | 1000 to 25000 | 50 to 75 | < 50 | < 50
10 | Cc1cc(-n2nc(N)c(=O)[nH]c2=O)cc(Cl)c1Oc1cc(C(C)C)c(=O)[nH]n1 [Compound 37, 6-Amino-2-[3-chloro-4-[(5-isopropyl-6-oxo-1H-pyridazin-3-yl)oxy]-5-methyl-phenyl]-4H-1,2,4-triazine-3,5-dione] | > 75 | 50 to 250 | 50 to 75 | 50 to 250 | 250 to 1000 | 50 to 75 | 50 to 250 | 50 to 75

Second part, the molecule after the results:

Row | Emax [1] [%] | EC50 [1] [nM] | Emax [2] [%] | EC50 [2] [nM] | EC50 [3] [nM] | Emax [3] [%] | EC50 [4] [nM] | Emax [4] [%] | Compound
11 | > 75 | 1000 to 10000 | 50 to 75 | > 10000 | 1000 to 25000 | < 50 | 1000 to 25000 | < 50 | Nc1nn(-c2cc(Cl)c(Oc3cc(C4CCOCC4)c(=O)[nH]n3)c(Cl)c2)c(=O)[nH]c1=O [Compound 59, 6-amino-2-(3,5-dichloro-4-[[5-(oxan-4-yl)-6-oxo-1H-pyridazin-3-yl]oxy]phenyl)-4H-1,2,4-triazine-3,5-dione]
12 | > 75 | 1000 to 10000 | > 75 | 1000 to 10000 | 1000 to 25000 | < 50 | 250 to 1000 | < 50 | CC(C)(O)c1cc(Oc2c(Cl)cc(-n3nc(N)c(=O)[nH]c3=O)cc2Cl)n[nH]c1=O [Compound 60, 6-amino-2-(3,5-dichloro-4-[[5-(2-hydroxypropan-2-yl)-6-oxo-1H-pyridazin-3-yl]oxy]phenyl)-4H-1,2,4-triazine-3,5-dione]
13 | > 75 | 50 to 250 | 50 to 75 | 250 to 1000 | 250 to 1000 | < 50 | 50 to 250 | < 50 | Nc1nn(-c2cc(Cl)c(Oc3cc(-c4ccccc4)c(=O)[nH]n3)c(Cl)c2)c(=O)[nH]c1=O [Compound 63, 6-amino-2-[3,5-dichloro-4-[(6-hydroxy-5-phenylpyridazin-3-yl)oxy]phenyl]-4H-1,2,4-triazine-3,5-dione]
14 | < 50 | 50 to 250 | < 50 | > 10000 | > 25000 | < 50 | 50 to 250 | < 50 | Nc1nn(-c2cc(Cl)c(Oc3cc(C4CCc5ccccc5C4)c(=O)[nH]n3)c(Cl)c2)c(=O)[nH]c1=O (stereo not drawn) [Compound 98]
15 | 50 to 75 | 1000 to 10000 | < 50 | > 10000 | 1000 to 25000 | 50 to 75 | 250 to 1000 | < 50 | N#CC1CCC1c1cc(Oc2c(Cl)cc(-n3nc(N)c(=O)[nH]c3=O)cc2Cl)n[nH]c1=O (stereo not drawn) [Compound 104]
